# Experimental data taken from patent publication US20250381243A1, “HETEROCYCLES AND USES THEREOF” (Kumquat Biosciences Inc., priority 2022, published 2025).
# Where two headings read alike, the source gives them in different places.
# Test system: A549 cells
# Test: Cell proliferation assay (CellTiter-Glo), cells with K-Ras G12S mutation
# Format: cell-based
# Settings: Homo sapiens, read-out: Inhibition of A549 Cells (IC50)
# Summary of the method: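 A549 (K-Ras G12S) cells in RPMI-1640 with 10% heat-inactivated FBS, plated in standard or ultra-low-attachment 384-well format, treated next day with a dilution series (e.g., 10-point, 3-fold). Viability read by CellTiter-Glo luminescence about 6 days later; IC50 from four-parameter fit.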
IC50 (500 nM to 5 μM (mixed units)),IC50 (≤500 nM),SMILES
0.5 to 5 µM,–,"N#CCCN(C(=O)n1cncn1)C1CCCN(c2nc(OC[C@@]34CCCN3C[C@H](F)C4)nc3c(F)c(-c4ccc(F)c5sc(N)c(C#N)c45)c(Cl)cc23)CC1 (stereo partly drawn) [Compound 166, N-(1-(7-(2-amino-3-cyano-7-fluorobenzo[b]thiophen-4-yl)-6-chloro-8-fluoro-2-(((2R,7aS)-2-fluorotetrahydro-1H-pyrrolizin-7a(5H)-yl)methoxy)quinazolin-4-yl)azepan-4-yl)-N-(2-cyanoethyl)-1H-1,2,4-triazole-1-carboxamide]"
0.5 to 5 µM,–,"CC([C@H]1CCN1C(=O)n1cnc(Cl)n1)N(C)c1nc(OC[C@@]23CCCN2C[C@H](F)C3)nc2c(F)c(-c3ccc(F)c4sc(N)c(C#N)c34)c(Cl)cc12 (stereo partly drawn) [Compound 172, (4R)-2-amino-4-(6-chloro-4-((1-(1-(3-chloro-1H-1,2,4-triazole-1-carbonyl)azetidin-2-yl)ethyl)(methyl)amino)-8-fluoro-2-(((2R,7aS)-2-fluorotetrahydro-1H-pyrrolizin-7a (5H)-yl)methoxy)quinazolin-7-yl)-7-fluorobenzo[b]thiophene-3-carbonitrile]"
–,≤ 0.5 µM,"CC(C)C1N(C(=O)n2cnc(Cl)n2)CC12CCCN(c1nc(OC[C@@]34CCCN3C[C@H](F)C4)nc3c(F)c(-c4ccc(F)c5sc(N)c(C#N)c45)c(Cl)cc13)C2 (stereo partly drawn) [Compound 175, 2-amino-4-(6-chloro-4-(2-(3-chloro-1H-1,2,4-triazole-1-carbonyl)-1-isopropyl-2,6-diazaspiro[3.5]nonan-6-yl)-8-fluoro-2-(((2R,7aS)-2-fluorotetrahydro-1H-pyrrolizin-7a(5H)-yl)methoxy)quinazolin-7-yl)-7-fluorobenzo[b]thiophene-3-carbonitrile]"
–,≤ 0.5 µM,"CCN(C(=O)n1cncn1)C1CCN(c2nc(OC[C@@]34CCCN3C[C@H](F)C4)nc3c(F)c(-c4ccc(F)c5sc(N)c(C#N)c45)c(Cl)cc23)C1 (stereo partly drawn) [Compound 177, N-(1-(7-(2-amino-3-cyano-7-fluorobenzo[b]thiophen-4-yl)-6-chloro-8-fluoro-2-(((2R,7aS)-2-fluorotetrahydro-1H-pyrrolizin-7a(5H)-yl)methoxy)quinazolin-4-yl)pyrrolidin-3-yl)-N-ethyl-1H-1,2,4-triazole-1-carboxamide]"
–,≤ 0.5 µM,"CC1([C@H]2N(C(=O)n3cnc(Cl)n3)C[C@]23CCCN(c2nc(OC[C@@]45CCCN4C[C@H](F)C5)nc4c(F)c(-c5ccc(F)c6sc(N)c(C#N)c56)c(Cl)cc24)C3)CC1 [Compound 179, 2-amino-4-(6-chloro-4-((1R,4R)-2-(3-chloro-1H-1,2,4-triazole-1-carbonyl)-1-(1-methylcyclopropyl)-2,6-diazaspiro[3.5]nonan-6-yl)-8-fluoro-2-(((2R,7aS)-2-fluorotetrahydro-1H-pyrrolizin-7a(5H)-yl)methoxy)quinazolin-7-yl)-7-fluorobenzo[b]thiophene-3-carbonitrile]"
–,≤ 0.5 µM,"CC(C)N(C(=O)n1cncn1)[C@H]1CCN(c2nc(OC[C@@]34CCCN3C[C@H](F)C4)nc3c(F)c(-c4ccc(F)c5sc(N)c(C#N)c45)c(Cl)cc23)C1 [Compound 180, N-((3S)-1-(7-(2-amino-3-cyano-7-fluorobenzo[b]thiophen-4-yl)-6-chloro-8-fluoro-2-(((2R,7aS)-2-fluorotetrahydro-1H-pyrrolizin-7a(5H)-yl)methoxy)quinazolin-4-yl)pyrrolidin-3-yl)-N-isopropyl-1H-1,2,4-triazole-1-carboxamide]"
–,≤ 0.5 µM,"CC1N(C(=O)n2cncn2)CC12CCCN(c1nc(OC[C@@]34CCCN3C[C@H](F)C4)nc3c(F)c(-c4ccc(F)c5sc(N)c(C#N)c45)c(Cl)cc13)C2 (stereo partly drawn) [Compound 182, 2-amino-4-(6-chloro-8-fluoro-2-(((2R,7aS)-2-fluorotetrahydro-1H-pyrrolizin-7a(5H)-yl)methoxy)-4-(1-methyl-2-(1H-1,2,4-triazole-1-carbonyl)-2,6-diazaspiro[3.5]nonan-6-yl)quinazolin-7-yl)-7-fluorobenzo[b]thiophene-3-carbonitrile]"
–,≤ 0.5 µM,"CC(C)[C@H]1N(C(=O)n2cnc(F)n2)C[C@]12CCCN(c1nc(OC[C@@]34CCCN3C[C@H](F)C4)nc3c(F)c(-c4ccc(F)c5sc(N)c(C#N)c45)c(Cl)cc13)C2 [Compound 184, 2-amino-4-(6-chloro-8-fluoro-4-((1R,4R)-2-(3-fluoro-1H-1,2,4-triazole-1-carbonyl)-1-isopropyl-2,6-diazaspiro[3.5]nonan-6-yl)-2-(((2R,7aS)-2-fluorotetrahydro-1H-pyrrolizin-7a(5H)-yl)methoxy)quinazolin-7-yl)-7-fluorobenzo[b]thiophene-3-carbonitrile]"
–,≤ 0.5 µM,"C[C@H]1CC[C@]2(CN(C(=O)n3cnc(F)n3)[C@@H]2C2(C)CC2)CN1c1nc(OC[C@@]23CCCN2C[C@H](F)C3)nc2c(F)c(-c3ccc(F)c4sc(N)c(C#N)c34)c(Cl)cc12 [Compound 185, 2-amino-4-(6-chloro-8-fluoro-4-((1R,4R,7S)-2-(3-fluoro-1H-1,2,4-triazole-1-carbonyl)-7-methyl-1-(1-methylcyclopropyl)-2,6-diazaspiro[3.5]nonan-6-yl)-2-(((2R,7aS)-2-fluorotetrahydro-1H-pyrrolizin-7a(5H)-yl)methoxy)quinazolin-7-yl)-7-fluorobenzo[b]thiophene-3-carbonitrile]"
–,≤ 0.5 µM,"CN(C[C@@H]1CN(C(=O)n2cnc(F)n2)[C@@H]1C1(C(F)F)CC1)c1nc(OC[C@@]23CCCN2C[C@H](F)C3)nc2c(F)c(-c3ccc(F)c4sc(N)c(C#N)c34)c(Cl)cc12 [Compound 186, 2-amino-4-(6-chloro-4-((((2S,3R)-2-(1-(difluoromethyl)cyclopropyl)-1-(3-fluoro-1H-1,2,4-triazole-1-carbonyl)azetidin-3-yl)methyl)(methyl)amino)-8-fluoro-2-(((2R,7aS)-2-fluorotetrahydro-1H-pyrrolizin-7a(5H)-yl)methoxy)quinazolin-7-yl)-7-fluorobenzo[b]thiophene-3-carbonitrile]"
–,≤ 0.5 µM,"CC(C)[C@H]1N(C(=O)n2cnc(Cl)n2)C[C@]12CCCN(c1nc(OC[C@@]34CCCN3C[C@H](F)C4)nc3c(F)c(-c4ccc(F)c5sc(N)c(C#N)c45)c(Cl)cc13)C2 [Compound 190, 2-amino-4-(6-chloro-4-((1R,4R)-2-(3-chloro-1H-1,2,4-triazole-1-carbonyl)-1-isopropyl-2,6-diazaspiro[3.5]nonan-6-yl)-8-fluoro-2-(((2R,7aS)-2-fluorotetrahydro-1H-pyrrolizin-7a(5H)-yl)methoxy)quinazolin-7-yl)-7-fluorobenzo[b]thiophene-3-carbonitrile]"
–,≤ 0.5 µM,"CC(C)[C@H]1N(C(=O)n2cnc(Cl)n2)C[C@]12CC[C@H](C)N(c1nc(OC[C@@]34CCCN3C[C@H](F)C4)nc3c(F)c(-c4ccc(F)c5sc(N)c(C#N)c45)c(Cl)cc13)C2 [Compound 192, 2-amino-4-(6-chloro-4-((1R,4R,7S)-2-(3-chloro-1H-1,2,4-triazole-1-carbonyl)-1-isopropyl-7-methyl-2,6-diazaspiro[3.5]nonan-6-yl)-8-fluoro-2-(((2R,7aS)-2-fluorotetrahydro-1H-pyrrolizin-7a(5H)-yl)methoxy)quinazolin-7-yl)-7-fluorobenzo[b]thiophene-3-carbonitrile]"
–,≤ 0.5 µM,"C[C@H]1CC[C@]2(CN(C(=O)n3cnc(F)n3)[C@@H]2C2CCC2)CN1c1nc(OC[C@@]23CCCN2C[C@H](F)C3)nc2c(F)c(-c3ccc(F)c4sc(N)c(C#N)c34)c(Cl)cc12 [Compound 199, 2-amino-4-(6-chloro-4-((1R,4R,7S)-1-cyclobutyl-2-(3-fluoro-1H-1,2,4-triazole-1-carbonyl)-7-methyl-2,6-diazaspiro[3.5]nonan-6-yl)-8-fluoro-2-(((2R,7aS)-2-fluorotetrahydro-1H-pyrrolizin-7a(5H)-yl)methoxy)quinazolin-7-yl)-7-fluorobenzo[b]thiophene-3-carbonitrile]"
–,≤ 0.5 µM,"CC(C)[C@H]1N(C(=O)n2cnc(F)n2)C[C@@]12CN(c1nc(OC[C@@]34CCCN3C[C@H](F)C4)nc3c(F)c(-c4ccc(F)c5sc(N)c(C#N)c45)c(Cl)cc13)CCO2 [Compound 204, 2-amino-4-(6-chloro-8-fluoro-4-((1R,4S)-2-(3-fluoro-1H-1,2,4-triazole-1-carbonyl)-1-isopropyl-5-oxa-2,8-diazaspiro[3.5]nonan-8-yl)-2-(((2R,7aS)-2-fluorotetrahydro-1H-pyrrolizin-7a(5H)-yl)methoxy)quinazolin-7-yl)-7-fluorobenzo[b]thiophene-3-carbonitrile]"
–,≤ 0.5 µM,"CC1CN(c2nc(OC[C@@]34CCCN3C[C@H](F)C4)nc3c(F)c(-c4ccc(F)c5sc(N)c(C#N)c45)c(Cl)cc23)CC1N(C)C(=O)n1cncn1 (stereo partly drawn) [Compound 206, N-(1-(7-(2-amino-3-cyano-7-fluorobenzo[b]thiophen-4-yl)-6-chloro-8-fluoro-2-(((2R,7aS)-2-fluorotetrahydro-1H-pyrrolizin-7a(5H)-yl)methoxy)quinazolin-4-yl)-4-methylpyrrolidin-3-yl)-N-methyl-1H-1,2,4 triazole-1-carboxamide]"
–,≤ 0.5 µM,"CC(C)[C@@H]1[C@H](CN(C)c2nc(OC[C@@]34CCCN3C[C@H](F)C4)nc3c(F)c(-c4ccc(F)c5sc(N)c(C#N)c45)c(Cl)cc23)CN1C(=O)n1cnc(Cl)n1 [Compound 208, 2-amino-4-(6-chloro-4-((((2R,3R)-1-(3-chloro-1H-1,2,4-triazole-1-carbonyl)-2-isopropylazetidin-3-yl)methyl)(methyl)amino)-8-fluoro-2-(((2R,7aS)-2-fluorotetrahydro-1H-pyrrolizin-7a(5H)-yl)methoxy)quinazolin-7-yl)-7-fluorobenzo[b]thiophene-3-carbonitrile]"
–,≤ 0.5 µM,"CCN(C(=O)n1cncn1)C1CCCN(c2nc(OC[C@@]34CCCN3C[C@H](F)C4)nc3c(F)c(-c4ccc(F)c5sc(N)c(C#N)c45)c(Cl)cc23)C1 (stereo partly drawn) [Compound 209, N-(1-(7-(2-amino-3-cyano-7-fluorobenzo[b]thiophen-4-yl)-6-chloro-8-fluoro-2-(((2R,7aS)-2-fluorotetrahydro-1H-pyrrolizin-7a(5H)-yl)methoxy)quinazolin-4-yl)piperidin-3-yl)-N-ethyl-1H-1,2,4-triazole-1-carboxamide]"
